Source: ChEMBL document CHEMBL4017490, “Design, Synthesis, and Pharmacological Evaluation of Novel Multisubstituted Pyridin-3-amine Derivatives as Multitargeted Protein Kinase Inhibitors for the Treatment of Non-Small Cell Lung Cancer” (J Med Chem, 2017)

Legend:
[1] = Half life in CD-1 mouse at 5 mg/kg, iv by LC-MS/MS method; format: ADME, organism-based; details: in vivo
[2] = molecular target: Discoidin domain-containing receptor 2 (Homo sapiens, UniProt Q16832); assay: Inhibition of recombinant DDR2 (unknown origin) using poly (Glu,Tyr) 4:1 as substrate after 60 mins by ELISA
Discoidin domain-containing receptor 2, sequence (Q16832 whole entry, the tested form may be a part): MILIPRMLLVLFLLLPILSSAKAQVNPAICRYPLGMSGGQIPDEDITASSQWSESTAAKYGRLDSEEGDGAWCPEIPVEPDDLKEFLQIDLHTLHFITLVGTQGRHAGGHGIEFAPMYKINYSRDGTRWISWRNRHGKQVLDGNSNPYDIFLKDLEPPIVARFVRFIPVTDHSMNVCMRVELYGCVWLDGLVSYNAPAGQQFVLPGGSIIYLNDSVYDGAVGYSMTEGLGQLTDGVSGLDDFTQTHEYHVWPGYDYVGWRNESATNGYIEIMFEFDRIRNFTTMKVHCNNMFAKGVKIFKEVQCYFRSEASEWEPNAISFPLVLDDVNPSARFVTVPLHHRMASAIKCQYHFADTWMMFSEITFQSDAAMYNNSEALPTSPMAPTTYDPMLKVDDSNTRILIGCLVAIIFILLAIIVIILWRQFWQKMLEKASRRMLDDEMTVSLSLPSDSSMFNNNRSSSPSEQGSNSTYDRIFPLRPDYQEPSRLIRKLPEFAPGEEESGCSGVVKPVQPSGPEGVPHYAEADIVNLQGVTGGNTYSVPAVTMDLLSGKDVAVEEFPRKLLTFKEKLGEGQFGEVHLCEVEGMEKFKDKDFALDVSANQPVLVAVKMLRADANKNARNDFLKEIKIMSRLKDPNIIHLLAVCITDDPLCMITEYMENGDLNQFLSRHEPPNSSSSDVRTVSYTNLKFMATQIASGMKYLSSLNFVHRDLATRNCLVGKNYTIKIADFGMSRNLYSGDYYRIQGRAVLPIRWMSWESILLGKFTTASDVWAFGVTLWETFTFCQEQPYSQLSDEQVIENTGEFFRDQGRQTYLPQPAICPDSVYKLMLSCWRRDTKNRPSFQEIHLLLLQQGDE

[3] = Tmax in Sprague-Dawley rat at 20 mg/kg, po by LC-MS/MS method; format: ADME, organism-based; details: in vivo
[4] = Tmax in Sprague-Dawley rat at 10 mg/kg, iv by LC-MS/MS method; format: ADME, organism-based; details: in vivo
[5] = Tmax in CD-1 mouse at 20 mg/kg, po by LC-MS/MS method; format: ADME, organism-based; details: in vivo
[6] = Cmax in Sprague-Dawley rat at 20 mg/kg, po by LC-MS/MS method; format: ADME, organism-based; design: dose 20 mg/kg, route oral; details: in vivo
[7] = Cmax in Sprague-Dawley rat at 10 mg/kg, iv by LC-MS/MS method; format: ADME, organism-based; design: dose 10 mg/kg, route intravenous; details: in vivo
[8] = Cmax in CD-1 mouse at 20 mg/kg, po by LC-MS/MS method; format: ADME, organism-based; design: dose 20 mg/kg, route oral; details: in vivo
[9] = AUC (0 to t) in Sprague-Dawley rat at 20 mg/kg, po by LC-MS/MS method; format: ADME, organism-based; details: in vivo
[10] = MRT in Sprague-Dawley rat at 20 mg/kg, po by LC-MS/MS method; format: ADME, organism-based; details: in vivo
[11] = AUC (0 to t) in Sprague-Dawley rat at 10 mg/kg, iv by LC-MS/MS method; format: ADME, organism-based; details: in vivo
[12] = AUC (0 to t) in CD-1 mouse at 20 mg/kg, po by LC-MS/MS method; format: ADME, organism-based; details: in vivo
[13] = MRT in CD-1 mouse at 20 mg/kg, po by LC-MS/MS method; format: ADME, organism-based; details: in vivo
[14] = AUC (0 to infinity) in Sprague-Dawley rat at 20 mg/kg, po by LC-MS/MS method; format: ADME, organism-based; design: dose 20 mg/kg, route oral, time infinity; details: in vivo
[15] = AUC (0 to infinity) in Sprague-Dawley rat at 10 mg/kg, iv by LC-MS/MS method; format: ADME, organism-based; design: dose 10 mg/kg, time infinity, route intravenous; details: in vivo
[16] = AUC (0 to infinity) in CD-1 mouse at 20 mg/kg, po by LC-MS/MS method; format: ADME, organism-based; design: dose 20 mg/kg, time infinity, route oral; details: in vivo
[17] = AUC (0 to infinity) in CD-1 mouse at 5 mg/kg, iv by LC-MS/MS method; format: ADME, organism-based; design: dose 5 mg/kg, time infinity, route intravenous; details: in vivo
[18] = MRT in Sprague-Dawley rat at 10 mg/kg, iv by LC-MS/MS method; format: ADME, organism-based; details: in vivo
[19] = MRT in CD-1 mouse at 5 mg/kg, iv by LC-MS/MS method; format: ADME, organism-based; details: in vivo
[20] = Half life in Sprague-Dawley rat at 10 mg/kg, iv by LC-MS/MS method; format: ADME, organism-based; details: in vivo
[21] = Half life in CD-1 mouse at 20 mg/kg, po by LC-MS/MS method; format: ADME, organism-based; details: in vivo
[22] = Oral bioavailability in Sprague-Dawley rat at 20 mg/kg by LC-MS/MS method; format: ADME, organism-based; details: in vivo
[23] = Apparent clearance in Sprague-Dawley rat at 10 mg/kg, iv by LC-MS/MS method; format: ADME, organism-based; details: in vivo, read-out: CL(app) (converted)
[24] = system: NCI-H1581; assay: Antitumor activity against human NCI-H1581 cells xenografted in nude mouse assessed as tumor growth inhibition at 5 mg/kg, po qd administered for 14 days measured twice per week during compound dosing; format: functional; details: 336 h, read-out: TGI
[25] = system: NCI-H1581; assay: Antitumor activity against human NCI-H1581 cells xenografted in nude mouse assessed as tumor growth inhibition at 20 mg/kg, po qd administered for 14 days measured twice per week during compound dosing; format: functional; details: 336 h, read-out: TGI
[26] = Protein binding in plasma (unknown origin); format: ADME, cell-free; details: read-out: PPB (converted)
[27] = Inhibition of FGFR3 mutant in human UM-UC-14 cells assessed as inhibition of cell proliferation after 72 hrs by cell counting kit-8 assay; format: cell-based; details: UMUC14, 72 h
[28] = system: Mus musculus; assay: Toxicity in nude mouse xenografted with human NCI-H1581 cells assessed as emaciation at 20 mg/kg, po qd administered for 14 days; format: organism-based; details: in vivo, 336 h
[29] = system: Mus musculus; assay: Toxicity in nude mouse xenografted with human NCI-H1581 cells assessed as diarrhea at 20 mg/kg, po qd administered for 14 days; format: organism-based; details: in vivo, 336 h
[30] = system: Mus musculus; assay: Unbound Cmax in CD-1 mouse at 5 mg/kg, iv by LC-MS/MS method; format: ADME, organism-based; details: in vivo
[31] = system: Mus musculus; assay: Unbound Cmax in CD-1 mouse at 20 mg/kg, po by LC-MS/MS method; format: ADME, organism-based; details: in vivo
[32] = system: Mus musculus; assay: Toxicity in nude mouse xenografted with human NCI-H1581 cells assessed as body weight loss at 20 mg/kg, po qd administered for 14 days; format: organism-based; details: in vivo, 336 h
[33] = system: NCI-H1581; details: Homo sapiens
Description: Antitumor activity against human NCI-H1581 cells xenografted in po dosed nude mouse assessed as tumor growth inhibition administered as qd for 14 days measured twice per week during compound dosing

half-life [1]: 2.5 h
IC50 [2]: 0.0008 µM
Tmax [3]: 1 h
Tmax [4]: 0.25 h
Tmax [5]: 0.42 h
Cmax [6]: 2.08 µg/mL
Cmax [7]: 6.54 µg/mL
Cmax [8]: 0.961 µg/mL
AUC(0-t) [9]: 16.6 µg·h/mL
MRT [10]: 6.72 h
AUC(0-t) [11]: 13.7 µg·h/mL
AUC(0-t) [12]: 2.4 µg·h/mL
MRT [13]: 3.59 h
AUC(0-inf) [14]: 18.7 µg·h/mL
AUC(0-inf) [15]: 13.8 µg·h/mL
AUC(0-inf) [16]: 2.41 µg·h/mL
AUC(0-inf) [17]: 0.29 µg·h/mL
MRT [18]: 3.41 h
MRT [19]: 3.74 h
half-life [20]: 2.39 h
half-life [21]: 2.72 h
bioavailability [22]: 60%
clearance [23]: 0.727 L/h/kg
fraction unbound [26]: 0.0044
fCmax [30]: 1.1 nM
fCmax [31]: 10.2 nM
Compound: Cc1n[nH]c2ccc(-c3cc(N[C@@H](CO)c4ccccc4)cnc3-c3cc(F)ccc3O)cc12
inhibition in vivo at 5 mg/kg [24]: 37.8%
inhibition in vivo at 20 mg/kg [25]: 66.1%
IC50 [27]: 0.128 µM
Activity [28]: Toxic
Activity [29]: Toxic
Activity [32]: Toxic
TGI [33]: Dose-dependent effect
